Data: patent US20240342148A1, “METHODS OF TREATING FACIOSCAPULOHUMERAL MUSCULAR DYSTROPHY WITH LOSMAPIMOD” (Fulcrum Therapeutics, Inc., priority 2021, published 2024)
Several values for one entry are separate records, joined by “and”; a condition that tells them apart may be missing. Equal entries are not always repeated.

How the values were obtained:
[1] = system: subjects with FSHD; test: Timed Up and Go (TUG); type: in vivo, human; conditions: nonsignificant
Procedure: (§1) TUG assessments were performed at all visits, except for Wk16. The TUG test is a simple test that is used to assess a subject's mobility and requires both static and dynamic balance. TUG is a validated instrument that measures the time that a person takes to rise from a chair, walk 3 meters, turn around, walk back to the chair, and sit down. Subjects used their regular footwear, and their customary walking aid (no walkers allowed). Patients were also timed in a modified test (FSHD TUG), where they started from a supine position, then sat up, completed the TUG, and lay down again.

[2] = system: subjects with FSHD; test: Reachable workspace, Open Label Study, exploratory annualized analysis; type: in vivo, human; conditions: with and without weights
Description: In the Open Label Study, reachable workspace (RWS) with and without weights has also been evaluated. FIG. 27 provides exploratory annualized percentage changes of RWS from baseline of patients participating in the study.

[3] = system: subjects with FSHD; test: Hand-held dynamometry, maximum voluntary isometric contraction (MVICT); type: in vivo, human
Procedure: Quantitative isometric dynamometry strength assessments were performed at all visits, except for Week 16. The MicroFET2 hand-held dynamometer was used to measure strength in the bilateral shoulders, elbow flexors and extensors, and ankle dorsiflexors. The Jamar Plus Digital Hand Dynamometer was used to measure bilateral grip strengths. Standard physical therapy techniques were used. Assessment of maximum voluntary isometric contraction (MVICT) was conducted with a hand-held dynamometer.

[4] = system: subjects with FSHD; test: FSHD-TUG; parameters: species or system human; conditions: in vivo
Procedure: as §1

[5] = system: subjects with FSHD; test: Safety and tolerability in the RCT; type: in vivo, human; conditions: 15 mg BID up to 48 weeks
Procedure: All safety analyses were performed using the safety analysis set based on as-treated treatment group. Safety analyses included summaries of TEAEs, clinical laboratory, vital signs and ECGs.

[6] = system: subjects with FSHD; test: Patients' Global Impression of Change (PGIC); type: in vivo, human; conditions: Wk48
Procedure: The Patients' Global Impression of Change (PGIC) Questionnaire was administered at every visit after baseline. Subjects were asked to rate their overall status since the start of the study on a scale from 1 (very much improved) to 7 (very much worse). The PGIC scale has been validated in several other indications and is recommended by the FDA for use as a meaningful measure of within-patient change.

[7] = system: subjects with FSHD; test: Motor Function Measure Domain 1 (MFM); parameters: species or system human; conditions: in vivo
Procedure: MFM domain 1 assessments were performed at all visits, except for those on Wk4 and Wk16. The MFM scale assesses the severity of motor deficit. Domain 1 of the MFM provides an assessment of functional impairment for standing and transfers.

[8] = system: p38a/b MAPK pathway; test: Target engagement in blood: pHSP27/HSP27total ELISA after ex vivo sorbitol stimulation; parameters: species or system human
Procedure: Blood samples for target engagement were collected at D1 and Wk16 or Wk36, at the same pre- and post-dose time points as PK samples.
Blood samples for measurement of total heat shock protein 27 (HSP27total) and phosphorylated heat shock protein 27 (pHSP27) were collected into EDTA-containing tubes. Two mL of whole blood was stimulated ex vivo with sorbitol for 30 minutes at room temperature to induce phosphorylation of HSP27 as a measure of p38a/b MAPK activity. Sorbitol stimulation activates the p38a/b MAPK pathway in blood and allows for more robust detection of inhibition of the p38a/b MAPK pathway by losmapimod. Subsequently, samples were lysed on ice and lysates frozen at −80° C. pHSP27 and HSP27total were measured by a validated enzyme-linked immunosorbent assay method (Cambridge Biomedical Inc., Boston, MA, USA and Immunologix, Tampa, FL, USA). Inter- and intra-assay precision for both pHSP27 and HSP27total met the preapproved criteria of <25% CV having been run in 5 replicates with the LLOQ established for pHSP27 at 20.7 ng/ml and ULOQ at 470.1 ng/ml and the LLOQ established for HSP27total at 105.2 ng/ml and ULOQ at 2168.1 ng/mL.

[9] = Muscle losmapimod concentrations in needle biopsies; type: in vivo; conditions: human, po, 15 mg BID, 15 mg orally BID
Procedure: Muscle needle biopsies were performed using the Bergstrom needle or fine needle at D1 and Wk16, or Wk36 if the muscle biopsy could not be performed at Wk16. The choice of the muscle(s) to be biopsied was determined by the investigator, informed by MRI taken during screening. Only those STIR+ muscles with 10%≤MFF≤40% were eligible for biopsy. […] The bilateral vastus lateralis, vastus medialis, lateral gastrocnemius, medial gastrocnemius, and tibialis anterior were evaluated for eligibility by MRI using a central reader. The Wk16 or Wk36 muscle needle biopsies were performed in the same approximate location as the pretreatment (D1) muscle biopsy. At baseline, MRI fiducials were placed in order to identify the location for the needle biopsy. Coordinates in reference to the closest fiducial defined the location for the muscle biopsy. […] Approximately 15-40 mg of tissue was obtained at each biopsy and frozen in liquid nitrogen within 60 seconds after excision and stored at −80° C. (SciSafe Inc. Billerica, MA, USA) until analysis.
Plasma and muscle losmapimod concentrations were measured by 2 validated bioanalytical high-performance liquid chromatography methods by PPD, USA (PPD 2019).

Cc1c(F)cc(C(=O)NC2CC2)cc1-c1ccc(C(=O)NCC(C)(C)C)cn1 [losmapimod, 6-(5-cyclopropylcarbamoyl-3-fluoro-2-methyl-phenyl)-N-(2,2-dimethylpropyl-)-nicotinamide]
Progression in TUG time [1]: 0.16 s
TUG time difference vs placebo [1]: 0.58 s
Annualized RWS increase from baseline, Q1 and Q3 (largest increases) [2]: 7-17%
MVICT strength change, ankle dorsiflexors, left ankle ([3]; Wk48, post-hoc): 27.17%
MVICT strength change, ankle dorsiflexors, right ankle ([3]; Wk48, post-hoc): 12.72%
MVICT strength change, shoulder abductors, non-dominant shoulder ([3]; Wk48, post-hoc): 17.85%
MVICT strength change, shoulder abductors, dominant shoulder ([3]; Wk48, post-hoc, ns): −3.79%
MVICT difference vs placebo, non-dominant shoulder ([3]; Wk48, post-hoc, p<0.01): 34.89
MVICT difference vs placebo, right ankle ([3]; Wk48, post-hoc, p<0.05): 38.39
MVICT difference vs placebo, left ankle ([3]; Wk48, post-hoc, p=0.11): 37.37
Average or MVICT in other muscle groups (bilateral hand grip, elbow flexors or extensors) ([3]; vs placebo): No difference
FSHD-TUG vs placebo [4]: no difference
Safety and tolerability [5]: favorable safety and tolerability
Patients reporting feeling very much worse on PGIC (6-7 in Likert scale) [6]: No losmapimod treated patients
Patients reporting improvement on PGIC (1-3 in Likert scale) [6]: 27.5% and ~20%
PGIC difference compared to placebo ([6]; 1-7 Likert scale, p=0.02): 0.58
MFM total score vs placebo [7]: no difference
Reduction of pHSP27/HSP27total compared to placebo at Cmax [8]: 48.0-70.2%
concentration at 16 weeks ([9]; Wk16 biopsy, read-out: Concentrations in muscles at Wk16): 61 ± 7.7 ng/g
concentration at 36 weeks ([9]; Wk36 biopsy, read-out: Concentrations in muscles at Wk36): 91.1 ± 10.7 ng/g
